“And” between values parts separate entries of the source, which are not always exact repeats. Identical values can stand only once.
Key:
[1] = target: T1, Type I 5α-Reductase from Human Scalp (Homo sapiens, UniProt P18405); test: Human Type I 5α-reductase assay (conversion of [3H]-testosterone to 5α-reduced metabolites); format: biochemical; conditions: 50 nM [3H]-testosterone, pH 7.5, 25°, 180 min, compared to control reaction mixtures; for inhibition at 0.3 µM: pH 7.5, 0.3 μM, read-out: percent inhibition of Type I AR; for percent inhibition of Type I AR: 0.3 μM
T1 construct: Scalp punch biopsies from graft recipient sites were obtained from human hair transplant procedures; from tissue; host or cells: human scalp punch biopsies (hair transplant graft recipient sites), homogenate, 100,000×g pellet
T1 sequence (P18405 1-259): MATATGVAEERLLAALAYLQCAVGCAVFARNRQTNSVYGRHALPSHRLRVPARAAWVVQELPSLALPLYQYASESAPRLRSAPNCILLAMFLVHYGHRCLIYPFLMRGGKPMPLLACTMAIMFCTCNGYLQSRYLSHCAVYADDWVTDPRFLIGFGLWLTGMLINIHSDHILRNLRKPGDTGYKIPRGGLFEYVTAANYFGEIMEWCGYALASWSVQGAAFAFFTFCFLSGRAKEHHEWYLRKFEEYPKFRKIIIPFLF

[2] = target: T2, Type II 5α-Reductase from Human Prostate (Homo sapiens, UniProt P31213); test: Human Type II 5α-reductase assay (conversion of [3H]-testosterone to 5α-reduced metabolites); format: biochemical; conditions: sodium acetate pH 5.5, 25°, 30 min, compared to control reaction mixtures; for inhibition at 0.3 µM: pH 5.5, 0.3 μM, read-out: percent inhibition of Type II AR; for percent inhibition of Type II AR: 0.3 μM
T2 construct: The same procedure as above was used for preparations using tissue from prostate surgery; from tissue; host or cells: human prostate tissue from surgery, homogenate, 100,000×g pellet
T2 sequence (P31213 1-254): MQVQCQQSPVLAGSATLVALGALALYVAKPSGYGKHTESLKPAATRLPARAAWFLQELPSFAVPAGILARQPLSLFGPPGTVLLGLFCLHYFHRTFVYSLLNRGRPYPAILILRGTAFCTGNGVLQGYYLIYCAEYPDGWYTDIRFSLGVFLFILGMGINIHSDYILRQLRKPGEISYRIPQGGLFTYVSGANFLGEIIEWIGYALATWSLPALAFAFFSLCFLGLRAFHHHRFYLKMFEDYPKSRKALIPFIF

inhibition at 0.3 µM [1] | inhibition at 0.3 µM [2] | percent inhibition of Type I AR [1] | percent inhibition of Type II AR [2] | SMILES
13% | 32% |  |  | CN1C(=O)CC[C@]2(C)c3ccc(C(=O)NCc4ccccc4)cc3CC[C@@H]12 [Example 146, (+)-(4aR)-(10bR)-4-methyl-8-(benzylcarboxamido)-10b-methyl-1,2,3,4,4a,5,6,10b-octahydrobenzo[f]quinolin-3-one]
35% | 83% |  |  | CN1C(=O)CC[C@]2(C)c3ccc(C(=O)OC(c4ccccc4)c4ccccc4)cc3CC[C@@H]12 [Example 147, (4aR)-(10bR)-4,10b-dimethyl-8-diphenylmethoxycarbonyl-1,2,3,4,4a,5,6,10b-octahydrobenzo[f]quinolin-3-one]
2% | 12% |  |  | CN1C(=O)CC[C@]2(C)c3ccc(C(=O)NC(c4ccccc4)c4ccccc4)cc3CC[C@@H]12 [Example 148, (4aR)-(10bR)-4,10b-dimethyl-8-diphenylmethylcarboxamido-1,2,3,4,4a,5,6,10b-octahydrobenzo[f]quinolin-3-one]
58% | 33% |  |  | CN1C(=O)CC[C@]2(C)c3ccc(Sc4nccs4)cc3CC[C@@H]12 [Example 149, (+)-(4aR)-(10bR)-4-methyl-8-(2-thiazoylthio)-10b-methyl-1,2,3,4,4a,5,6,10b-octahydrobenzo[f]quinolin-3-one]
67% | 69% |  |  | CN1C(=O)CC[C@]2(C)c3ccc(Sc4nc5ccccc5o4)cc3CC[C@@H]12 [Example 150, (+)-(4aR)-(10bR)-4-methyl-8-(2-benzoxazolylthio)-10b-methyl-1,2,3,4,4a,5,6,10b-octahydrobenzo[f]quinolin-3-one]
31% | 28% |  |  | CN1C(=O)CC[C@]2(C)c3ccc(Sc4ncccn4)cc3CC[C@@H]12 [Example 151, (+)-(4aR)-(10bR)-4-methyl-8-(2-pyrimidinylthio)-10b-methyl-1,2,3,4,4a,5,6,10b-octahydrobenzo[f]quinolin-3-one]
47% | 10% |  |  | CN1C(=O)CC[C@]2(C)c3ccc(Sc4cnccn4)cc3CC[C@@H]12 [Example 152, (+)-(4aR)-(10bR)-4-methyl-8-(2-pyrazinylthio)-10b-methyl-1,2,3,4,4a,5,6,10b-octahydrobenzo[f]quinolin-3-one]
49% | 71% |  |  | CN1C(=O)CC[C@]2(C)c3ccc(Sc4cnc5ccccc5n4)cc3CC[C@@H]12 [Example 153, (+)-(4aR)-(10bR)-4-methyl-8-(2-quinoxalinylthio)-10b-methyl-1,2,3,4,4a,5,6,10b-octahydrobenzo[f]quinolin-3-one]
56% | 25% |  |  | CN1C(=O)CC[C@]2(C)c3ccc(Sc4nnnn4-c4ccccc4)cc3CC[C@@H]12 [Example 154, (+)-(4aR)-(10bR)-4-methyl-8-(2-[3-phenyl]tetrazoylthio)-10b-methyl-1,2,3,4,4a,5,6,10b-octahydrobenzo[f]quinolin-3-one]
58% | 60% |  |  | CN1C(=O)CC[C@]2(C)c3ccc(Sc4ccc(C(F)(F)F)cn4)cc3CC[C@@H]12 [Example 155, (+)-(4aR)-(10bR)-4-methyl-8-(2-[5-trifluoromethyl]pyridylthio)-10b-methyl-1,2,3,4,4a,5,6,10b-octahydrobenzo[f]-quinolin-3-one]
71% | 70% |  |  | CN1C(=O)CC[C@]2(C)c3ccc(Sc4n[nH]c5ccccc45)cc3CC[C@@H]12 [Example 156, (+)-(4aR)-(10bR)-4-methyl-8-(3-indazolylthio)-10b-methyl-1,2,3,4,4a,5,6,10b-octahydrobenzo[f]quinolin-3-one]
88% | 79% |  |  | CC(C)c1cccc2sc(Sc3ccc4c(c3)CC[C@H]3N(C)C(=O)CC[C@]43C)nc12 [Example 157, (+)-(4aR)-(10bR)-4-methyl-8-(2-[4-isopropyl]benzothiazolylthio)-10b-methyl-1,2,3,4,4a,5,6,10b-octahydrobenzo[f]-quinolin-3-one]
78% | 63% |  |  | CN1C(=O)CC[C@]2(C)c3ccc(Sc4nc5ccc(Cl)cc5s4)cc3CC[C@@H]12 [Example 158, (+)-(4aR)-(10bR)-4-methyl-8-(6-chloro-2-benzothiazolylthio)-10b-methyl-1,2,3,4,4a,5,6,10b-octahydrobenzo[f]quinolin-3-one]
 | 87% | 87% | 83% | Cc1cccc2sc(Sc3ccc4c(c3)CC[C@H]3N(C)C(=O)CC[C@]43C)nc12 [Example 159, (+)-(4aR)-(10bR)-4-methyl-8-(4-methyl-2-benzothiazolylthio)-10b-methyl-I, 2,3,4,4a,5,6,10b-octahydrobenzo[f]quinolin-3-one]
61% | 38% |  |  | CN1C(=O)CC[C@]2(C)c3ccc(Sc4nc5cc([N+](=O)[O-])ccc5s4)cc3CC[C@@H]12 [Example 160, (+)-(4aR)-(10bR)-4-methyl-8-(5-nitro-2-benzothiazolylthio)-10b-methyl-1,2,3,4,4a,5,6,10b-octahydrobenzo[f]quinolin-3-one]
71% | 51% |  |  | COc1ccc2nc(Sc3ccc4c(c3)CC[C@H]3N(C)C(=O)CC[C@]43C)sc2c1 [Example 161, (+)-(4aR)-(10bR)-4-methyl-8-(6-methoxy-2-benzothiazolylthio)-10b-methyl-1,2,3,4,4a,5,6,10b-octahydrobenzo[f]quinolin-3-one]
79% | 87% |  |  | CN1C(=O)CC[C@]2(C)c3ccc(Sc4nc5c(F)cccc5s4)cc3CC[C@@H]12 [Example 162, (+)-(4aR)-(10bR)-4-methyl-8-(4-fluoro-2-benzothiazolylthio)-10b-methyl-1,2,3,4,4a,5,6,10b-octahydrobenzo[f]quinolin-3-one]
80% | 86% |  |  | CN1C(=O)CC[C@]2(C)c3ccc(Sc4nc5c(ccc6ccccc65)s4)cc3CC[C@@H]12 [Example 163, (+)-(4aR)-(10bR)-4-methyl-8-(2-naphtho<1,2-d>-thiazolylthio)-10b-methyl-1,2,3,4,4a,5,6,10b-octahydrobenzo[f]-quinolin-3-one]
85% | 86% | 87% | 85% and 79% | CN1C(=O)CC[C@]2(C)c3ccc(Sc4nc5c(Cl)cccc5s4)cc3CC[C@@H]12 [Example 164, (+)-(4aR)-(10bR)-4-methyl-8-(4-chloro-2-benzothiazolylthio)-10b-methyl-1,2,3,4,4a,5,6,10b-octahydrobenzo[f]quinolin-3-one]
61% | 74% |  |  | CN1C(=O)CC[C@]2(C)c3ccc(Sc4nc5cc(Cl)c(Cl)cc5s4)cc3CC[C@@H]12 [Example 165, (+)-(4aR)-(10bR)-4-methyl-8-(5,6-dichloro-2-benzothiazolylthio)-10b-methyl-1,2,3,4,4a,5,6,10b-octahydrobenzo[f]-quinolin-3-one]
50% | 49% |  |  | CN1C(=O)CC[C@]2(C)c3ccc(Sc4ccc([N+](=O)[O-])cn4)cc3CC[C@@H]12 [Example 166, (+)-(4aR)-(10bR)-4-methyl-8-(5-nitro-2-pyridinylthio)-10b-methyl-1,2,3,4,4a,5,6,10b-octahydrobenzo[f]quinolin-3-one]
62% | 31% |  |  | CN1C(=O)CC[C@]2(C)c3ccc(Sc4ncccc4[N+](=O)[O-])cc3CC[C@@H]12 [Example 167, (+)-(4aR)-(10bR)-4-methyl-8-(3-nitro-2-pyridinylthio)-10b-methyl-1,2,3,4,4a,5,6,10b-octahydrobenzo[f]quinolin-3-one]
85% | 41% |  |  | CN1C(=O)CC[C@]2(C)c3ccc(Sc4ccc5cc([N+](=O)[O-])ccc5n4)cc3CC[C@@H]12 [Example 168, (+)-(4aR)-(10bR)-4-methyl-8-(6-nitro-2-quinolinylthio)-10b-methyl-1,2,3,4,4a,5,6,10b-octahydrobenzo[f]quinolin-3-one]
75% | 61% |  |  | CN1C(=O)CC[C@]2(C)c3ccc(Sc4ccc5c([N+](=O)[O-])cccc5n4)cc3CC[C@@H]12 [Example 169, (+)-(4aR)-(10bR)-4-methyl-8-(5-nitro-2-quinolinylthio)-10b-methyl-1,2,3,4,4a,5,6,10b-octahydrobenzo[f]quinolin-3-one]
43% | 63% |  |  | CN1C(=O)CC[C@]2(C)c3ccc(Sc4ccc(-c5ccccc5)nn4)cc3CC[C@@H]12 [Example 171, (+)-(4aR)-(10bR)-4-methyl-8-(6-phenyl-3-pyridazinylthio)-10b-methyl-1,2,3,4,4a,5,6,10b-octahydrobenzo[f]quinolin-3-one]

Reference: patent publication US5622962A, “5α-reductase inhibitors” (priority 1995, dated 1997)
